Like-named read-outs stand apart in the source and are kept apart here.
Experiments:
[1] = biological target: T1, TLR7 (Homo sapiens, UniProt Q9NYK1); assay: Human PBMC cell-based assay, TLR7 agonist GS-986 stimulation, cytokine (IL-6 and IFNα) readout; conditions: human PBMCs, read-out: TLR-7 EC50
T1 construct: lymphocytes, monocytes and dendritic cells that express TLR7, TLR8 and TLR9; endogenous in cells; host or cells: human PBMCs from healthy donors
T1 sequence (Q9NYK1 27-1049): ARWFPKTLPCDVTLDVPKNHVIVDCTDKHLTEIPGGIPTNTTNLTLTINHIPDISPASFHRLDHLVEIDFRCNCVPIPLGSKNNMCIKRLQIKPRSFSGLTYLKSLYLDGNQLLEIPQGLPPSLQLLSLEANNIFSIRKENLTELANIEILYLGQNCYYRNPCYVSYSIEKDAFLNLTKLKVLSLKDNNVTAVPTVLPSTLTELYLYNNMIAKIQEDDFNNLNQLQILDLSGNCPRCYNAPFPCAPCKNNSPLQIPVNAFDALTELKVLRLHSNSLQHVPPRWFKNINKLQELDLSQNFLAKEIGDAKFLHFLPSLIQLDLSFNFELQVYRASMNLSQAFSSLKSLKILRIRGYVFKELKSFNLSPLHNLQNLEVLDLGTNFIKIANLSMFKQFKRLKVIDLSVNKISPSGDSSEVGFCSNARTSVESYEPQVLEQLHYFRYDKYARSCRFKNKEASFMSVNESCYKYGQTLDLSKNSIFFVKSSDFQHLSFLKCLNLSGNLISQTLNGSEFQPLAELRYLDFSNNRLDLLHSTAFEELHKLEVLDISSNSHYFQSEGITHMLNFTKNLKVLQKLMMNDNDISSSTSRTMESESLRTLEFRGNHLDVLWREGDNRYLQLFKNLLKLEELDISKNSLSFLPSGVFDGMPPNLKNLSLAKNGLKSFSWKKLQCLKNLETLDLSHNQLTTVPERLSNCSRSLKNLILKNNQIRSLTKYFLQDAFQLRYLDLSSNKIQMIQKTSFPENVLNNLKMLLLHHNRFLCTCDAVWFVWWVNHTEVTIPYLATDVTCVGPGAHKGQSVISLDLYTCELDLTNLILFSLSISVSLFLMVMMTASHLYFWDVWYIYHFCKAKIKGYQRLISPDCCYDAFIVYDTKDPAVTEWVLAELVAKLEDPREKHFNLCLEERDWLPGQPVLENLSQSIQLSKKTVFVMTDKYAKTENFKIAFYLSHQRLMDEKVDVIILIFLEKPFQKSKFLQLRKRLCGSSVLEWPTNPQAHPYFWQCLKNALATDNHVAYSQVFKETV
Summary of the method: (§1)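 Readout is IL-6 and IFNα in supernatants, quantified by electrochemiluminescence, with EC50 from a sigmoidal fit of cytokine versus concentration. Healthy-donor human PBMCs, 100,000 per well, got antagonist for 1 h at 37 °C, then 6 h agonist exposure: TLR7 via GS-986 at 400 nM final, TLR9 via ODN-2216 at 3 μM final.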

[2] = biological target: T2, TLR9 (Homo sapiens, UniProt Q9NR96); assay: Human PBMC cell-based assay, TLR9 agonist ODN-2216 stimulation, cytokine (IL-6 and IFNα) readout; conditions: human PBMCs, read-out: TLR-9 EC50
T2 construct: lymphocytes, monocytes and dendritic cells that express TLR7, TLR8 and TLR9; endogenous in cells; host or cells: human PBMCs from healthy donors
T2 sequence (Q9NR96 26-1032): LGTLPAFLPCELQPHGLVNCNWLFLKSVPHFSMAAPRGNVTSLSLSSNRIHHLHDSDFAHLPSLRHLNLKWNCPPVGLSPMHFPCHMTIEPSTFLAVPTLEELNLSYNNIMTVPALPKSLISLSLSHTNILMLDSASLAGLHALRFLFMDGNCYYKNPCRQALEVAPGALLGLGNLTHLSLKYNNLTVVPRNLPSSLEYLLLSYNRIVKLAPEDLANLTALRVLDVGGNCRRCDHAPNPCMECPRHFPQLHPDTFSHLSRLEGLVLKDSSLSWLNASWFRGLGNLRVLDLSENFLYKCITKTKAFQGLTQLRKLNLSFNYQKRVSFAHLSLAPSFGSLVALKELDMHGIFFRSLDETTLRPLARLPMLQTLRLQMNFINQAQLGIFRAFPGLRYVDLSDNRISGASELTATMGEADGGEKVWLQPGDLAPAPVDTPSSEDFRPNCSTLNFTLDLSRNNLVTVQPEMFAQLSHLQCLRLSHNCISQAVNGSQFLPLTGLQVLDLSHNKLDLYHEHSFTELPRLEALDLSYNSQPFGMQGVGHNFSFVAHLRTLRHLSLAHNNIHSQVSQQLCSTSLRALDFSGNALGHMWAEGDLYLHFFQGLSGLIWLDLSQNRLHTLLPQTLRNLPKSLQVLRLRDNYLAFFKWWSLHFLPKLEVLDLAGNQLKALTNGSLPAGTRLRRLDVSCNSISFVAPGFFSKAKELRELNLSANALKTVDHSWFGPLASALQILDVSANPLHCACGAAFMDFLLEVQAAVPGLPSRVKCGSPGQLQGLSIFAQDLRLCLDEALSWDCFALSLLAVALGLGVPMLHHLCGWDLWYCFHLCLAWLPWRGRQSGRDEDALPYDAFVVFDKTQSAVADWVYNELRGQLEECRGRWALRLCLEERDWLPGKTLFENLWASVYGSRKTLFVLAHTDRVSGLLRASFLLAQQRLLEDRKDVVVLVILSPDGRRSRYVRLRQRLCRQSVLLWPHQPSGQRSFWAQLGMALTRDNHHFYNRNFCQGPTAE
Summary of the method: as §1

[3] = biological target: cloned hERG potassium channel encoded by the KCNH2 gene (Homo sapiens, UniProt Q12809); assay: hERG FASTPatch assay (QPatch patch clamp, HEK293T cells); assay type: cell-based; conditions: HEK293T cells, 1, 3, 10 and 30 uM, room temperature; Table 27
cloned hERG potassium channel encoded by the KCNH2 gene, sequence (Q12809 whole entry): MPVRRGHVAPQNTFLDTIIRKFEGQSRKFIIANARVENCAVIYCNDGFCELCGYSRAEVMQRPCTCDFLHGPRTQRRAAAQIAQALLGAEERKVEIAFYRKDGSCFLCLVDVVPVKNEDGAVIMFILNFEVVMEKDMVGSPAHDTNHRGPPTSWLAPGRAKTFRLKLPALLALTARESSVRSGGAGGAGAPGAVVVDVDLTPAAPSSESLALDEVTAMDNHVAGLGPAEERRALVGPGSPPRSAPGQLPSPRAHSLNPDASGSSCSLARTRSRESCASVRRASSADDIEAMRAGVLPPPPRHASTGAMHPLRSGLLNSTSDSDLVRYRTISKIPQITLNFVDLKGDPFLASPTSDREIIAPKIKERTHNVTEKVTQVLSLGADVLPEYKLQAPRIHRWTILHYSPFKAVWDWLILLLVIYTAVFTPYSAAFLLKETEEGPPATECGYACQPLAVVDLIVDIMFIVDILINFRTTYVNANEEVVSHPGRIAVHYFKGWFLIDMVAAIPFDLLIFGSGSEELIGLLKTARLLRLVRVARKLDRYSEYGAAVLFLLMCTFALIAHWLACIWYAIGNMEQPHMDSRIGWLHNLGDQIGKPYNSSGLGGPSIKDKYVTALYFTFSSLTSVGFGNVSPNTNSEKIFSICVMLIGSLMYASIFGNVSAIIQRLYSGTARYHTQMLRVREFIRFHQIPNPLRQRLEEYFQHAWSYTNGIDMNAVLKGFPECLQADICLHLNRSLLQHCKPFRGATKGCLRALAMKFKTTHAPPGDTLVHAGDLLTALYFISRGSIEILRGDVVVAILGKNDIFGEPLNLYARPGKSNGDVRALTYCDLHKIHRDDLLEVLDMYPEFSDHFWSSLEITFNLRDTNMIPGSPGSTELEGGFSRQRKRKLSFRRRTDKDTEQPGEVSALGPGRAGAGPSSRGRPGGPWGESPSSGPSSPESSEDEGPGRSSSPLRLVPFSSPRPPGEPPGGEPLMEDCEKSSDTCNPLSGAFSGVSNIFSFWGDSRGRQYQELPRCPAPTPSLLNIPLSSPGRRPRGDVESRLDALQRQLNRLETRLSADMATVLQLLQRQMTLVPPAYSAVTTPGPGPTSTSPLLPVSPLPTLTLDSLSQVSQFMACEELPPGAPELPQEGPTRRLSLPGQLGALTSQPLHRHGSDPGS
Procedure: The FASTPatch® Assay (Charles River) was used to examine the in vitro effects of the compounds provided herein on the cloned hERG potassium channel encoded by the KCNH2 gene and stably expressed in HEK293T cells. Vehicle, test and control article formulations were prepared by diluting DMSO stock solutions in HB-PS (HEPES-buffered physiological saline solution) and were delivered to cells via the QPatch robot pipetting system to a final concentration of 0.3% DMSO. Test compound final concentrations of 1, 3, 10 and 30 uM were applied to cells (n >3, where n=the number of cells/concentration) in ascending order in at least three minute intervals separated by solution exchange. The positive control, 50 nM cisparide, was applied in the same manner. Cell membrane currents were recorded at room temperature with up to 48 parallel patch clamp amplifiers in the QPatch HT® or QPatch HTX® system, and only cells with validated whole-cell recordings (seal resistance >200 MQ and leak current <25% channel current) were used. Onset and block of hERG current was measured using a stimulus voltage pattern consisting of a 500 ms prepulse to −40 mV, a 2-second activating pulse to +40 mV, followed by a 2-second test pulse to −40 mV. The pulse pattern was repeated continuously at 10-second intervals from a holding potential of −80 mV. % Block={1-1/[1+([Test]/IC50)^N]}*100% Where [Test] is the concentration of test article, IC50 is the concentration of the test article producing half-maximal inhibition, N is the Hill coefficient and % Block is the percentage of current inhibited at each concentration of the test article. Nonlinear least squares fits will be solved with the Solver add-in for Excel 2000 or later (Microsoft, Redmon, WA). TurboSol analysis for test compound solubility was performed for each concentration tested using a Nephelostar reader measuring light scatter from a 635 nm laser source. Based on validation experiments, light scatter above four times the background level was considered an indication of the presence of particles in suspension.

[4] = GS-986 400 nM, 6 hours, Table 26
[5] = ODN-2216 3 μM, 6 hours, Table 26

EC50 ([1]; Table 27 comparison)	EC50 ([2]; Table 27 comparison)	EC50 [1, 4]	EC50 [2, 5]	SMILES	IC50 [3]
7.8 nM	285 nM			Cc1cc(-c2[nH]c3ccc(-c4ccnc(N5CCNCC5)c4)cc3c2C(C)C)cc(C)n1 [Example B, reference compound]	2.1 µM
		16.8 nM	29 nM	Cc1cc(-c2[nH]c3cc(-c4ccc(N5CCC(C)(N)CC5)nc4)ccc3c2C)cc(C)n1 [Example 23]	18.5 µM
12 nM	249 nM			Cc1cc(-c2[nH]c3ccc(-c4ccc(N5CCC(C)(N)CC5)nc4)cc3c2C(C)C)cc(C)n1 [Example D, reference compound]	7.8 µM
		315 nM	136 nM	Cc1cc(-c2[nH]c3cc(-c4ccnc(N5CCNCC5)c4)ccc3c2C)cc(C)n1 [Example 64]	20.3 µM
2.3 nM	583 nM			Cc1cc(-c2[nH]c3ccc(C4CCCNC4)cc3c2C(C)C)cc(C)n1 (stereo not drawn) [Example C, reference compound]	11 µM

Reference: patent US20250002471A1 (Gilead Sciences, Inc., priority 2020, published 2025)
